Data reported in US20230017786A1, “DEXTR[…] A DISEASE-MODIFYING TREATMENT FOR NEUROPSYCHIATRIC DISORDERS AND DISEASES” (priority 2020, published 2023).

Experiments:
5-HT2C receptor = target: T1, 5-HT2C receptor (Homo sapiens, UniProt P28335); details: agonist; Rickli et al., 2018; cited from earlier work
T1 sequence (P28335 33-458): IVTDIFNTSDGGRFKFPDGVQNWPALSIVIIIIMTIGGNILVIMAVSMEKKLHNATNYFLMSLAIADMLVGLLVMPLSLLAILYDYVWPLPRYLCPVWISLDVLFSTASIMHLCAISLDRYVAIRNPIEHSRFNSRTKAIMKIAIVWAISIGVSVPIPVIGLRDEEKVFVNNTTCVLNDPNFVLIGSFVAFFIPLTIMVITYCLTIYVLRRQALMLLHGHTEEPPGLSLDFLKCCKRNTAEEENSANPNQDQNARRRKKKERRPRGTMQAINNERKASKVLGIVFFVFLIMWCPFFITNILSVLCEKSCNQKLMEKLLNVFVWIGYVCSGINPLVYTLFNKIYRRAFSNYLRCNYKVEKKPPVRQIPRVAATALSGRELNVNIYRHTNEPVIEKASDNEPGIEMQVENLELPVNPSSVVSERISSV

[1] = target: T2, human NMDA receptor GluN1-GluN2D (Homo sapiens, UniProt O15399+Q05586); test: FLIPR calcium assay, test item effect on L-glutamate CRC, GluN1-GluN2D-CHO; type: cell-based
T2 construct: expressed in transfected cells; host or cells: CHO
T2 sequence (O15399 28-1336, other chains not shown): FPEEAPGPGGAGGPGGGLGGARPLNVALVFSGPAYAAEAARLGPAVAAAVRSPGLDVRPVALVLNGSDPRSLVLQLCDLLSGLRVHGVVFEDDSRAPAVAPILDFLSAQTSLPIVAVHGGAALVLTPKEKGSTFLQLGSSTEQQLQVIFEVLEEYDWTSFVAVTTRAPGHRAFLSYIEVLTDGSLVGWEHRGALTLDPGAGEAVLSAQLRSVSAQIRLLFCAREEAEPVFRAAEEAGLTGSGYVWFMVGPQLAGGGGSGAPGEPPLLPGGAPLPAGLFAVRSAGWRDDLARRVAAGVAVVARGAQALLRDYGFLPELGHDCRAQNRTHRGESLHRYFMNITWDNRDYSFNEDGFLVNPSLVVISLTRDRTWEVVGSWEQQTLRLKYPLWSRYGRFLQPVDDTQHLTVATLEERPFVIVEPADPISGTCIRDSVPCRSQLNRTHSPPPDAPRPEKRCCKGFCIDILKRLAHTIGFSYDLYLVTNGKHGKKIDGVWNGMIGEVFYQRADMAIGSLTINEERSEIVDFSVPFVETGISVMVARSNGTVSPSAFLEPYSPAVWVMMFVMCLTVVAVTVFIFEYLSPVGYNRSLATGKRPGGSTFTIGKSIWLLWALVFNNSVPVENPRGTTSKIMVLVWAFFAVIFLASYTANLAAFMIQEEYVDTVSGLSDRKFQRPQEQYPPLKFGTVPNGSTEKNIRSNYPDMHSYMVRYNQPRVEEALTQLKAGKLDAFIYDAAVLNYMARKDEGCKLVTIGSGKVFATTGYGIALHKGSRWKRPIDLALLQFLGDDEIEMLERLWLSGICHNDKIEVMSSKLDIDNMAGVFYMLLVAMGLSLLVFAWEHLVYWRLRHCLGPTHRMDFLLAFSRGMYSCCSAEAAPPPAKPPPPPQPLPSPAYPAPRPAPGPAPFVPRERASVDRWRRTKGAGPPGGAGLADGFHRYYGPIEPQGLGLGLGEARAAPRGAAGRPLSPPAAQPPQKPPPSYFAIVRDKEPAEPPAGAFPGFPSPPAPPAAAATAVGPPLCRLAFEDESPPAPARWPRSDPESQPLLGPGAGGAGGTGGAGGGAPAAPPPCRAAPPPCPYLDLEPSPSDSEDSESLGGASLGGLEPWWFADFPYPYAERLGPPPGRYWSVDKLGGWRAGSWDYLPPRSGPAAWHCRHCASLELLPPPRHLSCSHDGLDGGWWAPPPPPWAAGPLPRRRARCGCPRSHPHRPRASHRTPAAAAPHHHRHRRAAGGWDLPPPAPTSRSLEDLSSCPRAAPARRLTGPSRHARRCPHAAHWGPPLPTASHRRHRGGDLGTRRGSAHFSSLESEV

[2] = target: T3, human NMDA receptor GluN1-GluN2C (Homo sapiens, UniProt Q05586+Q14957); test: FLIPR calcium assay, test item effect on L-glutamate CRC, GluN1-GluN2C-CHO; type: cell-based
T3 construct: expressed in transfected cells; host or cells: CHO
T3 sequence (Q14957 20-1233, other chains not shown): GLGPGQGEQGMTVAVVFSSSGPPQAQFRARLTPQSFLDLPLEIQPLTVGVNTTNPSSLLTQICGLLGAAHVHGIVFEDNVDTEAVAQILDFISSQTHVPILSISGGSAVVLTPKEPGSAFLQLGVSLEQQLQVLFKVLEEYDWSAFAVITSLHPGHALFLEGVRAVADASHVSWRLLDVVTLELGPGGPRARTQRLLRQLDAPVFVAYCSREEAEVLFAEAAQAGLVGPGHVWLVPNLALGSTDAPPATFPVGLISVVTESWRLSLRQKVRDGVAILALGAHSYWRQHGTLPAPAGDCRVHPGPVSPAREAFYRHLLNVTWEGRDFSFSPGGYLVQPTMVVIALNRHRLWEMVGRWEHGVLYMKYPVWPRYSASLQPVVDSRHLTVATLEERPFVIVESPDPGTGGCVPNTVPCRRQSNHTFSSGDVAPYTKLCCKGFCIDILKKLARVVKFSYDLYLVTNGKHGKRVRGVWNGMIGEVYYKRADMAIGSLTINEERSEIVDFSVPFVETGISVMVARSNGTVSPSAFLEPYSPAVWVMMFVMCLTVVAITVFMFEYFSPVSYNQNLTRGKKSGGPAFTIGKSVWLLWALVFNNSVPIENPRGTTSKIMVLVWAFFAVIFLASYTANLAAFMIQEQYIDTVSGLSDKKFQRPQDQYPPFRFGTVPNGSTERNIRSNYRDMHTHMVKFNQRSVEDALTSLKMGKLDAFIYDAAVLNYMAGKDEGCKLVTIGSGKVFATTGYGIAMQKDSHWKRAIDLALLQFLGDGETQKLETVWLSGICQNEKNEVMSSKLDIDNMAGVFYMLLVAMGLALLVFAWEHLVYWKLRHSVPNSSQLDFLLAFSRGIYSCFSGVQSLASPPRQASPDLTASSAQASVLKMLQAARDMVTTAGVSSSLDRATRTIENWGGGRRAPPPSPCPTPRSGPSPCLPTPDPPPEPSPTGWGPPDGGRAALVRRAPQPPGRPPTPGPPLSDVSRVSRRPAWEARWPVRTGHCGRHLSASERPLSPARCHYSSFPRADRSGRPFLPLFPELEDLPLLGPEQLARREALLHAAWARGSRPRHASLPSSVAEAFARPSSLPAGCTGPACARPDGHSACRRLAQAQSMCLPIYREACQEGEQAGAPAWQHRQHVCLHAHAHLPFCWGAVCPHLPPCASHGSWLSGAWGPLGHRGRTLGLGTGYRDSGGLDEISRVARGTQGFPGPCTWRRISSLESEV

[3] = target: T4, recombinant human NMDAR GluN1 plus GluN2D (Homo sapiens, UniProt O15399+Q05586); test: FLIPR calcium assay, gentamicin as PAM (Example 5 Part I), GluN2D cell line; type: cell-based; details: 10 μM test item; dextromethadone in presence and absence of 10 μM gentamicin
T4 construct: expressed in transfected cells; host or cells: CHO
T4 sequence (O15399 28-1336, other chains not shown): as the sequence (O15399 28-1336, other chains not shown) above
From the text: (§1) A FLIPR calcium assay was used to profile gentamicin using stable cell lines expressing diheteromeric recombinant human NMDARs, containing GluN1 plus one amongst GluN2A, GluN2B, GluN2C or GluN2D subunit.

[4] = target: T5, human NMDA receptor GluN1-GluN2A (Homo sapiens, UniProt Q05586+Q12879); test: FLIPR calcium assay, test item effect on L-glutamate CRC, GluN1-GluN2A-CHO; type: cell-based
T5 construct: expressed in transfected cells; host or cells: CHO
T5 sequence (Q12879 23-1464, other chains not shown): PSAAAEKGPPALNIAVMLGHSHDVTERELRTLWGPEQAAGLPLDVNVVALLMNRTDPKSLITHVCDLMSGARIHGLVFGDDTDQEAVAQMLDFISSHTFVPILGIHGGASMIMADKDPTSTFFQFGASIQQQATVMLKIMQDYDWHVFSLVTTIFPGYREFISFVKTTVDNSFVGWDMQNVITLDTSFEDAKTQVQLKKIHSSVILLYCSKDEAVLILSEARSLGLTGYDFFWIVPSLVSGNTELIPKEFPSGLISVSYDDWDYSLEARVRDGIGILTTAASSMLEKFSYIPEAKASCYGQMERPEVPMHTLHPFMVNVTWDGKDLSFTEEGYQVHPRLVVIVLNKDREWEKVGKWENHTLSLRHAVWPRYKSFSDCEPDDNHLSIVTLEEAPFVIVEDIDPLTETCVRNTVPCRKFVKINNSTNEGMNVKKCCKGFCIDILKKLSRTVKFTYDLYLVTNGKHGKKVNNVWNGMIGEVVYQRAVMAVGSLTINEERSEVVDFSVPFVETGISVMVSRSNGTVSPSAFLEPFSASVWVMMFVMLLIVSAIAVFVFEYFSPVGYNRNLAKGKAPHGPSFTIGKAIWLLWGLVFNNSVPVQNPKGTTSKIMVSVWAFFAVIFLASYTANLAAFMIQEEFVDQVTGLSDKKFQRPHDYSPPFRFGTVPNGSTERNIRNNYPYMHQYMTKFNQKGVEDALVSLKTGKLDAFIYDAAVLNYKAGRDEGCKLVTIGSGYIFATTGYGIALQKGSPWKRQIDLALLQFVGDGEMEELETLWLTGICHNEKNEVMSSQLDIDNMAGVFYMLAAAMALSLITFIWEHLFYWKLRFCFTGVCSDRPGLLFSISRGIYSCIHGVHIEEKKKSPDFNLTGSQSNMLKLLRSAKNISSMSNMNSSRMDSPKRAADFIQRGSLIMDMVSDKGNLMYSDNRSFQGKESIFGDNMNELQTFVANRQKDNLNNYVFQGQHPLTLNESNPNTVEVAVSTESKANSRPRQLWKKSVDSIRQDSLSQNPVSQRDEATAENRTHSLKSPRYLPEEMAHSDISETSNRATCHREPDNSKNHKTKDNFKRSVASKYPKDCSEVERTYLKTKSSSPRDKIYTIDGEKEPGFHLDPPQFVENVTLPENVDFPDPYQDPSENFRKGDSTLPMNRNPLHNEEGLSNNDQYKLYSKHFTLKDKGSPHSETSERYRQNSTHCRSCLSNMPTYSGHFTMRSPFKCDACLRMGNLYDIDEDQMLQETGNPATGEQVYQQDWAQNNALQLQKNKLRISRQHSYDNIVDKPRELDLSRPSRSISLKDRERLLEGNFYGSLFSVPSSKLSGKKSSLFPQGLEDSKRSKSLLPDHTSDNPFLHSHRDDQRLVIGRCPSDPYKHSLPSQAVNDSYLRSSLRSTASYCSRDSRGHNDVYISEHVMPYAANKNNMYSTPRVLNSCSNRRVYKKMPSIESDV

[5] = Phase 1 SAD and MAD studies, pharmacokinetics
[6] = target: T3, human NMDA receptor GluN1-GluN2C; test: FLIPR calcium assay, quinolinic acid, gentamicin, dextromethadone (Example 5 Part II), GluN1-GluN2C-CHO; type: cell-based; details: 10 μM glycine; for calcium response (mean±SEM): GluN2C, n=42
[7] = target: T6, recombinant human NMDAR GluN1 plus GluN2A (Homo sapiens, UniProt Q05586+Q12879); test: FLIPR calcium assay, gentamicin as PAM (Example 5 Part I), GluN2A cell line; type: cell-based; details: 10 μM test item; dextromethadone in presence and absence of 10 μM gentamicin
T6 construct: expressed in transfected cells; host or cells: CHO
From the text: as §1

[8] = operational analysis for allosteric modulators

Compound: CCC(=O)C(C[C@H](C)N(C)C)(c1ccccc1)c1ccccc1 [Dextromethadone, dextromethadone]
- Ki (5-HT2C receptor): 1900 nM
- α, estimated cooperativity term [1, 8]: 0.22
- L-glutamate CRC HillSlope ([1]; with test item 49 nM): 1.3
- L-glutamate CRC LogEC50 ([1]; with test item 49 nM): −7.5
- L-glutamate CRC HillSlope ([1]; with test item 195 nM): 1.3
- L-glutamate CRC LogEC50 ([1]; with test item 195 nM): −7.5
- L-glutamate CRC HillSlope ([1]; with test item 781 nM): 1.7
- L-glutamate CRC LogEC50 ([1]; with test item 781 nM): −7.5
- L-glutamate CRC HillSlope ([1]; with test item 3.1 μM): 1.5
- L-glutamate CRC LogEC50 ([1]; with test item 3.1 μM): −7.4
- L-glutamate CRC HillSlope ([1]; with test item 12.5 μM): 1.1
- L-glutamate CRC LogEC50 ([1]; with test item 12.5 μM): −7.1
- L-glutamate CRC LogEC50 ([1]; with test item 50 μM): −6.9
- α, estimated cooperativity term [2, 8]: 0.17
- L-glutamate CRC HillSlope ([2]; with test item 49 nM): 1.3
- L-glutamate CRC LogEC50 ([2]; with test item 49 nM): −6.8
- L-glutamate CRC HillSlope ([2]; with test item 195 nM): 1.4
- L-glutamate CRC LogEC50 ([2]; with test item 195 nM): −6.8
- L-glutamate CRC HillSlope ([2]; with test item 781 nM): 2.2
- L-glutamate CRC LogEC50 ([2]; with test item 781 nM): −6.8
- L-glutamate CRC HillSlope ([2]; with test item 3.1 μM): 1.4
- L-glutamate CRC LogEC50 ([2]; with test item 3.1 μM): −6.8
- L-glutamate CRC HillSlope ([2]; with test item 12.5 μM): 1.5
- L-glutamate CRC LogEC50 ([2]; with test item 12.5 μM): −6.7
- L-glutamate CRC HillSlope ([2]; with test item 50 μM): 1.7
- L-glutamate CRC LogEC50 ([2]; with test item 50 μM): −6.6
- calcium entry induced by 0.04 μM L-glutamate [3]: significantly reduced
- calcium entry induced by 0.2 μM L-glutamate [3]: significantly reduced
- calcium entry induced by 10 μM L-glutamate [3]: significantly reduced
- α, estimated cooperativity term [4, 8]: 0.22
- L-glutamate CRC HillSlope ([4]; with test item 49 nM): 1.0
- L-glutamate CRC LogEC50 ([4]; with test item 49 nM): −6.7
- L-glutamate CRC HillSlope ([4]; with test item 195 nM): 1.1
- L-glutamate CRC LogEC50 ([4]; with test item 195 nM): −6.6
- L-glutamate CRC HillSlope ([4]; with test item 781 nM): 1.1
- L-glutamate CRC LogEC50 ([4]; with test item 781 nM): −6.6
- L-glutamate CRC HillSlope ([4]; with test item 3.1 μM): 1.0
- L-glutamate CRC LogEC50 ([4]; with test item 3.1 μM): −6.6
- L-glutamate CRC HillSlope ([4]; with test item 12.5 μM): 1.0
- L-glutamate CRC LogEC50 ([4]; with test item 12.5 μM): −6.4
- L-glutamate CRC HillSlope ([4]; with test item 50 μM): 1.4
- L-glutamate CRC LogEC50 ([4]; with test item 50 μM): −6.4
- conversion of dextromethadone to levomethadone in vivo ([5]; SAD and MAD subjects): No detectable conversion
- pharmacokinetic linearity ([5]; SAD and MAD, racially diversified subjects): linear pharmacokinetics with dose proportionality
- calcium response (mean±SEM) ([6]; 0.04 μM L-Glu + 10 μM DXT): 1.6 ± 0.4
- calcium response (mean±SEM) ([6]; 0.04 μM L-Glu + 100 μM QA + 10 μM DXT): −2.5 ± 0.7
- calcium response (mean±SEM) ([6]; 0.04 μM L-Glu + 1000 μM QA + 10 μM DXT): −8.6 ± 1.5
- calcium response (mean±SEM) ([6]; 0.2 μM L-Glu + 10 μM DXT): 13 ± 0.7
- calcium response (mean±SEM) ([6]; 0.2 μM L-Glu + 100 μM QA + 10 μM DXT): 7.7 ± 0.6
- calcium response (mean±SEM) ([6]; 0.2 μM L-Glu + 1000 μM QA + 10 μM DXT): −3.8 ± 0.9
- % effect on calcium entry, 100 QA + 10 DXT ([6]; 100 μM QA + 10 μM DXT): −3.3 ± 0.5%
- calcium response (mean±SEM) ([6]; 1000 μM QA + 10 μM DXT): −8.0 ± 0.4
- % effect on calcium entry, 1000 QA + 10 DXT ([6]; 1000 μM QA + 10 μM DXT): −8.0 ± 0.4%
- calcium response (mean±SEM) ([6]; 1000 μM QA + 10 μg/ml GENT + 10 μM DXT): −11 ± 0.9
- calcium response (mean±SEM) ([6]; Table 41: 0.04 μM L-Glu + 10 μM DXT): 1.6 ± 0.4
- calcium response (mean±SEM) ([6]; Table 43: 0.2 μM L-Glu + 10 μM DXT): 13 ± 0.7
- calcium entry induced by 0.04 μM L-glutamate [7]: significantly reduced
- calcium entry induced by 0.2 μM L-glutamate [7]: significantly reduced
- calcium entry induced by 10 μM L-glutamate [7]: significantly reduced
